Test results taken from US10874104B2, “Pesticidally active pryazole derivatives” (SYNGENTA PARTICIPATIONS AG, priority 2016, dated 2020).
Like-named read-outs stand apart in the source and are kept apart here.

Assays:
Format in all cases: in vivo
[1] = tested on: Diabrotica balteata (Corn Root Worm); test: Diabrotica balteata (corn root worm), sprayed maize sprouts on agar, mortality; conditions: 96 h
Procedure: Diabrotica balteata (Corn Root Worm):
Maize sprouts placed onto an agar layer in 24-well microtiter plates were treated with aqueous test solutions prepared from 10′000 ppm DMSO stock solutions by spraying. After drying, the plates were infested with L2 larvae (6 to 10 per well). The samples were assessed for mortality 4 days after infestation.

[2] = tested on: Plutella xylostella (Diamond Back Moth); test: Plutella xylostella (diamond back moth), feeding/contact activity on artificial diet, mortality; conditions: 120 h
Procedure: Plutella xylostella (Diamond Back Moth): Feeding/Contact Activity
24-well microtiter plates with artificial diet were treated with aqueous test solutions prepared from 10′000 ppm DMSO stock solutions by pipetting. After drying, the plates were infested with L2 larvae (10 to 15 per well). The samples were assessed for mortality 5 days after infestation.

[3] = tested on: Spodoptera littoralis (Egyptian Cotton Leaf Worm); test: Spodoptera littoralis (Egyptian cotton leaf worm), feeding/contact activity, mortality; conditions: 72 h
Procedure: Spodoptera littoralis (Egyptian Cotton Leaf Worm): Feeding/Contact Activity
(§1) Cotton leaf discs were placed onto agar in 24-well microtiter plates and sprayed with aqueous test solutions prepared from 10′000 ppm DMSO stock solutions. After drying the leaf discs were infested with five L1 larvae. The samples were assessed for mortality 3 days after infestation.

[4] = tested on: Thrips tabaci (Onion Thrips); test: Thrips tabaci (onion thrips), feeding/contact activity, mortality; conditions: 144 h
Procedure: Thrips tabaci (Onion Thrips): Feeding/Contact Activity
as §1, with “Sunflower” for “Cotton”, “on” for “onto”, “a thrips population of mixed ages.” for “five L1 larvae.”, “6” for “3”

[5] = tested on: Euschistus heros (Neotropical Brown Stink Bug); test: Euschistus heros (neotropical brown stink bug), feeding/contact activity, mortality; conditions: 120 h
Procedure: Euschistus heros (Neotropical Brown Stink Bug): Feeding/contact activity
(§2) Soybean leaves on agar in 24-well microtiter plates were sprayed with aqueous test solutions prepared from 10′000 ppm DMSO stock solutions. After drying the leaves were infested with N2 nymphs. The samples were assessed for mortality 5 days after infestation.

[6] = tested on: Tetranychus urticae (Two-Spotted Spider Mite); test: Tetranychus urticae (two-spotted spider mite), feeding/contact activity, mortality; conditions: 192 h, application rate 200 ppm, mixed population (mobile stages), 8 days after infestation
Procedure: Tetranychus urticae (Two-Spotted Spider Mite): Feeding/Contact Activity
as §2, with “Bean leaf discs” for “Soybean leaves”, “leaf discs” for “leaves”, “a mite population of mixed ages.” for “N2 nymphs.”, “on mixed population (mobile stages) 8” for “5”

[7] = tested on: Myzus persicae (Green Peach Aphid); test: Myzus persicae (green peach aphid), feeding/contact activity, mortality; conditions: 144 h, application rate 200 ppm, aphid population of mixed ages, 6 days after infestation
Procedure: Myzus persicae (Green Peach Aphid): Feeding/Contact Activity
Sunflower leaf discs were placed onto agar in a 24-well microtiter plate and sprayed with aqueous test solutions prepared from 10′000 ppm DMSO stock solutions. After drying, the leaf discs were infested with an aphid population of mixed ages. The samples were assessed for mortality 6 days after infestation.

[8] = application rate 200 ppm, L2 larvae, 4 days after infestation, read-out: mortality
[9] = application rate 200 ppm, N2 nymphs, 5 days after infestation, read-out: mortality
[10] = application rate 200 ppm, L2 larvae on artificial diet, 5 days after infestation, read-out: mortality
[11] = application rate 200 ppm, L1 larvae, 3 days after infestation, read-out: mortality
[12] = application rate 200 ppm, thrips population of mixed ages, 6 days after infestation, read-out: mortality

Measured: mortality at 200 ppm

Cn1nc(C(F)(F)C(F)(F)F)c(OC(F)(F)C(F)(F)C(F)(F)F)c1-n1cc(-c2ccc(Cl)c(C(=O)NC3CC3)c2)cn1 [Compound 45]
≥ 80%: [1] | [2] | [3] | [4]

CN(C(=O)c1cc(-c2cnn(-c3c(OC(F)F)c(C(F)(F)C(F)(F)F)nn3C)c2)ccc1C#N)C1CC1 [Compound 59]
≥ 80%: [1]; [8]

COc1c(C(F)(F)C(F)(F)F)nn(C)c1-n1cc(-c2ccc(Cl)c(C(=O)NC3CC3)c2)cn1 [Compound 6]
≥ 80%: [1]; [8] | [5]; [9] | [2]; [10] | [3]; [11] | [6] | [4]; [12]

CN(C(=O)c1cc(-c2cnn(-c3c(OC(F)F)c(C(F)(F)C(F)(F)F)nn3C)c2)ccc1C#N)C1(C#N)CC1 [Compound 61]
≥ 80%: [1]; [8]

Cn1nc(C(F)(F)C(F)(F)F)c(S(=O)(=O)C2CC2)c1-n1cc(-c2ccc(Cl)c(C(=O)NC3(C#N)CC3)c2)cn1 [Compound 35]
≥ 80%: [1]; [8] | [5]; [9] | [2]; [10] | [3]; [11] | [6] | [4]; [12]

C#Cc1c(C(F)(F)C(F)(F)F)nn(C)c1-n1cc(-c2ccc(Cl)c(C(=O)NC3(C#N)CC3)c2)cn1 [Compound 17]
≥ 80%: [1]; [8] | [5]; [9] | [7] | [2]; [10] | [6]

Cn1nc(C(F)(F)C(F)(F)F)c(C2CC2)c1-n1cc(-c2ccc(Cl)c(C(=O)NC3(C#N)CC3)c2)cn1 [Compound 9]
≥ 80%: [1]; [8] | [5]; [9] | [7] | [2]; [10] | [3]; [11] | [6] | [4]; [12]

Cn1nc(C(F)(F)C(F)(F)F)c(OC(F)F)c1-n1cc(-c2ccc(Cl)c(C(=O)NC3CC3)c2)nn1 [Compound 65]
≥ 80%: [1]; [8]

C=Cc1c(C(F)(F)C(F)(F)F)nn(C)c1-n1cc(-c2ccc(Cl)c(C(=O)NC3(C#N)CC3)c2)cn1 [Compound 15, 2-Chloro-N-(1-cyanocyclopropyl)-5-[1-[2-methyl-5-(1,1,2,2,2-pentafluoroethyl)-4-vinyl-pyrazol-3-yl]pyrazol-4-yl]benzamide]
≥ 80%: [1]; [8] | [5]; [9] | [7] | [2]; [10] | [3]; [11] | [6]

Cn1nc(C(F)(F)C(F)(F)F)c([S+]([O-])C2CC2)c1-n1cc(-c2ccc(Cl)c(C(=O)NC3(C#N)CC3)c2)cn1 (centres unmarked) [Compound 36]
≥ 80%: [1]; [8] | [5]; [9] | [7] | [2]; [10] | [3]; [11] | [6] | [4]; [12]

Cn1nc(C(F)(F)C(F)(F)F)c(OC(F)F)c1-n1cc(-c2cc(C(=O)NC3CC3)c(Cl)cc2F)cn1 [Compound 47]
≥ 80%: [2]; [10]

Cn1nc(C(F)(F)C(F)(F)F)c(OC(F)F)c1-n1cc(-c2cnc(Cl)c(C(=O)NC3(C#N)CC3)c2)cn1 [Compound 21]
≥ 80%: [1]; [8] | [5]; [9] | [7] | [2]; [10] | [3]; [11] | [6]

C#Cc1c(C(F)(F)C(F)(F)F)nn(C)c1-n1cc(-c2ccc(Cl)c(C(=O)NC3CC3)c2)cn1 [Compound 18]
≥ 80%: [3]; [11]

Cn1nc(C(F)(F)C(F)(F)F)c(OCC(F)F)c1-n1cc(-c2ccc(Cl)c(C(=O)NC3CC3)c2)cn1 [Compound 44]
≥ 80%: [1]; [8] | [2]; [10] | [3]; [11] | [6]

Cn1nc(C(F)(F)C(F)(F)F)c(OC(F)(F)C(F)C(F)(F)F)c1-n1cc(-c2ccc(Cl)c(C(=O)NC3(C#N)CC3)c2)cn1 (centres unmarked) [Compound 43]
≥ 80%: [1]; [8] | [2]; [10] | [3]; [11] | [4]; [12]

Cn1nc(C(F)(F)C(F)(F)F)c(OC(F)(F)C(F)C(F)(F)F)c1-n1cc(-c2ccc(Cl)c(C(=O)NCc3ccccc3)c2)cn1 (centres unmarked) [Compound 57]
≥ 80%: [7]

Cn1nc(C(F)(F)C(F)(F)F)c(OC(F)(F)C(F)F)c1-n1cc(-c2ccc(Cl)c(C(=O)NC3(C#N)CC3)c2)cn1 [Compound 37]
≥ 80%: [1]; [8] | [5]; [9] | [2]; [10] | [3]; [11] | [6] | [4]; [12]

CCN(C(=O)c1cc(-c2cnn(-c3c(OC(F)F)c(C(F)(F)C(F)(F)F)nn3C)c2)ccc1C#N)C1CC1 [Compound 58]
≥ 80%: [1]; [8]

Cn1nc(C(F)(F)C(F)(F)F)c(OC(F)F)c1-n1cc(-c2ccc(Cl)c(C(=O)NC3(C#N)CC3)c2)cn1 [Compound 1, 2-chloro-N-(1-cyanocyclopropyl)-5-[1-[4-(difluoromethoxy)-2-methyl-5-(1,1,2,2,2-pentafluoroethyl)pyrazol-3-yl]pyrazol-4-yl]benzamide]
≥ 80%: [1]; [8] | [5]; [9] | [7] | [2]; [10] | [3]; [11] | [6]

CCOc1c(C(F)(F)C(F)(F)F)nn(C)c1-n1cc(-c2ccc(Cl)c(C(=O)NC3(C#N)CC3)c2)cn1 [Compound 38]
≥ 80%: [1]; [8] | [5]; [9] | [2]; [10] | [3]; [11] | [6]

Cn1nc(C(F)(F)C(F)(F)F)c(OC(F)F)c1-n1cc(-c2ccc(C#N)c(C(=O)NC3CC3)c2)cn1 [Compound 62]
≥ 80%: [1]; [8]

Cn1nc(C(F)(F)C(F)(F)F)c(S(=O)(=O)C2CC2)c1-n1cc(-c2ccc(Cl)c(C(=O)NC3CC3)c2)cn1 [Compound 33]
≥ 80%: [1]; [8] | [5]; [9] | [2]; [10] | [3]; [11] | [6] | [4]; [12]

Cn1nc(C(F)(F)C(F)(F)F)c(OC(F)F)c1-n1cc(-c2ccc(Cl)c(C(=O)NC3CC3)c2)cn1 [Compound 2, 2-Chloro-N-cyclopropyl-5-[1-[4-(difluoromethoxy)-2-methyl-5-(1,1,2,2,2-pentafluoroethyl)-pyrazol-3-yl]pyrazol-4-yl]benzamide]
≥ 80%: [1]; [8] | [5]; [9] | [7] | [2]; [10] | [3]; [11] | [6]

Cn1nc(C(F)(F)C(F)(F)F)c(OC(F)(F)C(F)C(F)(F)F)c1-n1cc(-c2ccc(Cl)c(C(=O)NC3CC3)c2)cn1 (centres unmarked) [Compound 46]
≥ 80%: [1]; [8] | [2]; [10] | [3]; [11] | [4]; [12]

Cn1nc(C(F)(F)C(F)(F)F)c(OC(F)F)c1-n1cc(-c2ccc(Cl)c(C(=O)NC3(C#N)CC3)c2)nn1 [Compound 64, 2-Chloro-N-(1-cyanocyclopropyl)-5-[1-[4-(difluoromethoxy)-2-methyl-5-(1,1,2,2,2-pentafluoroethyl)pyrazol-3-yl]triazol-4-yl]benzamide]
≥ 80%: [1]; [8]

Cn1nc(C(F)(F)C(F)(F)F)c(OC(F)(F)C(F)(F)C(F)(F)F)c1-n1cc(-c2ccc(Cl)c(C(=O)NC3(C#N)CC3)c2)cn1 [Compound 40]
≥ 80%: [1] | [5] | [2] | [3] | [4]

Cn1nc(C(F)(F)C(F)(F)F)c(OCC(F)F)c1-n1cc(-c2ccc(Cl)c(C(=O)NC3(C#N)CC3)c2)cn1 [Compound 39]
≥ 80%: [1]; [8] | [5]; [9] | [2]; [10] | [3]; [11] | [6]
